Laboratory results: ChEMBL document CHEMBL1158124, “Engineering of the spinosyn PKS: directing starter unit incorporation” (2006)
≈ marks a conversion by molar mass, not a printed value.

Columns and labels:
Format in all cases: functional
[1] = test system: Spodoptera exigua; assay: Insecticidal activity against beet armyworm assessed as mortality per larva after 5 days
[2] = test system: Aphis gossypii; assay: Insecticidal activity against cotton aphid assessed as count of nonwinged stage live aphid after 72 hrs with 24 hrs of photoperiod prior to grading
[3] = test system: Heliothis virescens; assay: Insecticidal activity against tobacco budworm assessed per larva
[4] = test system: Bemisia tabaci; assay: Insecticidal activity against sweet potato whitefly assessed as larval survival after 13 days; details: 312 h
[5] = test system: Tetranychus urticae; assay: Insecticidal activity against two-spotted spinder mites assessed as count of live mites after 4 days with low light condition; details: 96 h
[6] = test system: Myzus persicae; assay: Insecticidal activity against green peach aphid assessed as count of nonwinged stage live aphid after 72 hrs with 24 hrs of photoperiod prior to grading
[7] = test system: Trichoplusia ni; assay: Insecticidal activity against cabbage looper assessed as mortality per larva after 5 days

CO[C@@H]1[C@@H](OC)[C@H](C)O[C@@H](O[C@H]2C[C@H]3[C@@H]4C=C5C(=O)[C@H](C)[C@@H](O[C@H]6CC[C@H](N(C)C)[C@@H](C)O6)CCC[C@H](C6CCC6)OC(=O)C[C@H]5[C@@H]4C=C[C@@H]3C2)[C@@H]1OC [21-DESETHYL-21-CYCLOBUTYLSPINOSYNS A]
LC50 [1]: >1 µg | LC50 [2]: 3 µg/mL (≈ 3.96 µM) | LC50 [3]: 0.013 µg | LC50 [4]: 55 µg/mL (≈ 72.6 µM) | LC50 [5]: > 50 µg/mL | LC50 [6]: > 50 µg/mL | LC50 [7]: 0.124 µg

CC[C@H]1CCC[C@H](O[C@H]2CC[C@H](N(C)C)[C@@H](C)O2)[C@@H](C)C(=O)C2=C[C@@H]3[C@@H](C=C[C@@H]4C[C@@H](O[C@@H]5O[C@@H](C)[C@H](OC)[C@@H](OC)[C@H]5OC)C[C@@H]34)[C@@H]2CC(=O)O1 [SPINOSYN A]
LC50 [1]: 0.63 µg | LC50 [2]: 65 µg/mL (≈ 88.8 µM) | LC50 [3]: 0.03 µg | LC50 [4]: 20 µg/mL (≈ 27.3 µM) | LC50 [5]: 5.3 µg/mL (≈ 7.24 µM) | LC50 [6]: 50 µg/mL (≈ 68.3 µM) | LC50 [7]: 0.03 µg

CCC[C@H]1CCC[C@H](O[C@H]2CC[C@H](N(C)C)[C@@H](C)O2)[C@@H](C)C(=O)C2=C[C@@H]3[C@@H](C=C[C@@H]4C[C@@H](O[C@@H]5O[C@@H](C)[C@H](OC)[C@@H](OC)[C@H]5OC)C[C@@H]34)[C@@H]2CC(=O)O1 [21-DESETHYL-21-N-PROPYLSPINOSYN A]
LC50 [1]: 0.031 µg | LC50 [2]: 27.3 µg/mL (≈ 36.6 µM) | LC50 [3]: 0.025 µg | LC50 [4]: > 50 µg/mL | LC50 [5]: < 50 µg/mL | LC50 [6]: > 50 µg/mL | LC50 [7]: 0.004 µg

CO[C@@H]1[C@@H](OC)[C@H](C)O[C@@H](O[C@@H]2C[C@H]3CC[C@@H]4[C@@H](C=C5C(=O)[C@H](C)[C@@H](O[C@H]6CC[C@H](N(C)C)[C@@H](C)O6)CCC[C@H](C6CCC6)OC(=O)C[C@H]54)[C@@H]3C2)[C@@H]1OC [5,6-DIHYDRO-21-DESETHYL-21-CYCLOBUTYLSPINOSYN A]
LC50 [1]: 0.134 µg | LC50 [2]: 1.7 µg/mL (≈ 2.24 µM) | LC50 [3]: 0.02 µg | LC50 [4]: 0.7 µg/mL (≈ 0.921 µM) | LC50 [6]: > 50 µg/mL | LC50 [7]: 0.013 µg

CO[C@@H]1[C@@H](OC)[C@H](C)O[C@@H](O[C@H]2C[C@H]3[C@@H]4C=C5C(=O)[C@H](C)[C@@H](O[C@H]6CC[C@H](N(C)C)[C@@H](C)O6)CCC[C@H](C6CC6)OC(=O)C[C@H]5[C@@H]4C=C[C@@H]3C2)[C@@H]1OC [21-DESETHYL-21-CYCLOPROPYLSPINOSYNS A]
LC50 [1]: 1 µg | LC50 [2]: 46 µg/mL (≈ 61.8 µM) | LC50 [3]: 0.125 µg | LC50 [4]: > 50 µg/mL | LC50 [5]: > 50 µg/mL | LC50 [6]: > 50 µg/mL | LC50 [7]: 0.157 µg

CC[C@H]1CCC[C@H](O[C@H]2CC[C@H](N(C)C)[C@@H](C)O2)[C@@H](C)C(=O)C2=C[C@@H]3[C@@H](C=C(C)[C@@H]4C[C@@H](O[C@@H]5O[C@@H](C)[C@H](OC)[C@@H](OC)[C@H]5OC)C[C@@H]34)[C@@H]2CC(=O)O1 [SPINOSYN D]
LC50 [2]: 50 µg/mL (≈ 67 µM) | LC50 [4]: 1.7 µg/mL (≈ 2.28 µM) | LC50 [5]: 19 µg/mL (≈ 25.5 µM) | LC50 [6]: 50 µg/mL (≈ 67 µM)

CO[C@@H]1[C@@H](OC)[C@H](C)O[C@@H](O[C@H]2C[C@H]3[C@@H]4C=C5C(=O)[C@H](C)[C@@H](O[C@H]6CC[C@H](N(C)C)[C@@H](C)O6)CCC[C@H](C)OC(=O)C[C@H]5[C@@H]4C=C[C@@H]3C2)[C@@H]1OC [SPINOSYN E]
LC50 [2]: > 50 µg/mL | LC50 [4]: 3.9 µg/mL (≈ 5.43 µM) | LC50 [5]: 10 µg/mL (≈ 13.9 µM) | LC50 [6]: > 50 µg/mL

CO[C@@H]1[C@@H](OC)[C@H](C)O[C@@H](O[C@H]2C[C@H]3[C@@H]4C=C5C(=O)[C@H](C)[C@@H](O[C@H]6CC[C@H](N(C)C)[C@@H](C)O6)CCC[C@H](C(C)C)OC(=O)C[C@H]5[C@@H]4C=C[C@@H]3C2)[C@@H]1OC [21-DESETHYL-21-ISOPROPYLSPINOSYN A]
LC50 [1]: 0.123 µg | LC50 [3]: 0.02 µg | LC50 [7]: 0.022 µg

CO[C@@H]1[C@@H](OC)[C@H](C)O[C@@H](O[C@H]2C[C@H]3[C@@H]4C=C5C(=O)[C@H](C)[C@@H](O[C@H]6CC[C@H](N(C)C)[C@@H](C)O6)CCC[C@H](C6CCC6)OC(=O)C[C@H]5[C@@H]4C=C(C)[C@@H]3C2)[C@@H]1OC
LC50 [1]: 0.385 µg | LC50 [2]: 15 µg/mL (≈ 19.4 µM) | LC50 [3]: 0.016 µg | LC50 [4]: 13.5 µg/mL (≈ 17.5 µM) | LC50 [6]: > 50 µg/mL | LC50 [7]: 0.01 µg
